Test results published in patent US10710988B2, “Piperazine derivative” (Astellas Pharma Inc., priority 2016, dated 2020).
Where a name gives a salt, the structure may show the parent alone.

Assays:
Format in all cases: cell-based
human MC3 receptor = biological target: T1, human MC3 receptor (Homo sapiens, UniProt P41968); assay: Human MC3 receptor activation, cAMP production in cells transiently expressing the receptor; settings: FreeStyle 293-F cells expressing human MC3 receptor, α-MSH maximum = 100%
T1 construct: expressed in transfected cells; host or cells: FreeStyle 293-F cells (transient, electroporation)
Excerpt: (§1) (1) Construction of Human MC Receptor-Expressing Vector
(§2) A human MC4 receptor gene (GenBank Accession No.: NM_005912.2), a human MC1 receptor gene (GenBank Accession No.: NM_002386.3), or a human MC3 receptor gene (GenBank Accession No.: NM_019888.3) was introduced into an expression vector pcDNA™ 3.1N/V5-His TOPO (registered trademark) (Thermo Fisher Scientific Inc).
(§3) (2) Construction of Cells Transiently Expressing Human MC Receptor
(§4) An expression vector for a human MC4, MC1, or MC3 receptor was introduced into FreeStyle™ 293-F cells (Thermo Fisher Scientific Inc., product number: R790-07). For the introduction, electroporation was employed. That is, 1×10^7 FreeStyle™ 293-F cells were suspended in 80 μL of an Electroporation Buffer (Thermo Fisher Scientific Inc., product number: B201-100), and 20 μg of the expression vector was added thereto. The resultant was put into a cuvette (OC-100 Processing Assembly, MaxCyte, Inc.) and electroporated with MaxCyte STX (registered trademark) (MaxCyte, Inc.). The cells were cultured for a day, suspended in a Cell Banker (registered trademark) 1 (TAKARA BIO INC. or JUJI FIELD Inc., product number: BLC-1), and stored frozen until they were used.
(§5) (3) Measurement of Amount of cAMP Production
(§6) Measurement was carried out by using a LANCE (registered trademark) Ultra cAMP Kit (PerkinElmer, Inc.) in accordance with the attached instructions. That is, after dissolution in DMSO, the test compound (a final concentration of 1 pM to 30 μM) diluted with an assay buffer (Hank's balanced salt solution, 5 mM 4-(2-hydroxyethyl)-1-piperazineethanesulfonic acid (HEPES), 0.5 mM 3-isobutyl-1-methylxanthine (IBMX), 0.1% bovine serum albumin, pH 7.4), or α-MSH (Bachem Inc., a final concentration of 1 pM to 30 μM) was added to OptiPlate-384 (PerkinElmer, Inc.). Furthermore, the suspension of the cells transiently expressing the human MC4, MC1, or MC3 receptor prepared using the assay buffer was added thereto at 1,000 cells/well, and then left to stand at room temperature for about 1 hour. Thereafter, an Eu-cAMP tracer solution and an ULight™-anti-cAMP solution were added thereto, and then the resulting solution was left to stand at room temperature for about 1 hour. The amount of cAMP was calculated using EnVision (registered trademark) (PerkinElmer Inc.).
(§7) For the agonistic activity, the efficacy (EC50 (μM)) was calculated by a non-linear regression method with a Sigmoid-Emax model, by defining the maximum reaction using α-MSH as 100% and the reaction using the vehicle alone as 0%, respectively.

human MC1 receptor = biological target: T2, human MC1 receptor (Homo sapiens, UniProt Q01726); assay: Human MC1 receptor activation, cAMP production in cells transiently expressing the receptor; settings: FreeStyle 293-F cells expressing human MC1 receptor, α-MSH maximum = 100%
T2 construct: expressed in transfected cells; host or cells: FreeStyle 293-F cells (transient, electroporation)
Excerpt: as §1, §2, §3, §4, §5, §6, §7

rat MC4 receptor = biological target: T3, rat MC4 receptor (Rattus norvegicus, UniProt P70596); assay: Rat MC4 receptor activation, cAMP production in cells transiently expressing the receptor; settings: FreeStyle 293-F cells expressing rat MC4 receptor, α-MSH maximum = 100%
T3 construct: expressed in transfected cells; host or cells: FreeStyle 293-F cells (transient, electroporation)
Excerpt: (1) Construction of Rat MC4 Receptor-Expressing Vector
A rat MC4 receptor gene (GenBank Accession No.: NM_013099.3) was introduced into an expression vector pcDNA™ 3.1N/V5-His TOPO (registered trademark) (Thermo Fisher Scientific Inc.).
(2) Construction of Cells Transiently Expressing Rat MC4 Receptor
as §4, with “rat MC4” for “human MC4, MC1, or MC3”, “Inc.).” for “Inc., product number: R790-07).”, “electroporation buffer” for “Electroporation Buffer”, “Inc.),” for “Inc., product number: B201-100),”, “Inc.),” for “Inc., product number: BLC-1),”
as §5
Measurement was carried out in accordance with the attached instructions, using a LANCE (registered trademark) Ultra cAMP Kit (PerkinElmer, Inc.). That is, after dissolution in DMSO, the test compound (a final concentration of 1 pM to 30 μM) diluted with an assay buffer (Hank's balanced salt solution, 5 mM HEPES, 0.5 mM IBMX, 0.1% bovine serum albumin, pH 7.4), or α-MSH (Bachem Inc., a final concentration of 1 pM to 30 μM) was added to OptiPlate-384 (PerkinElmer, Inc.). Furthermore, the suspension of the cells transiently expressing the rat MC receptor that was prepared using the assay buffer was added thereto at 1,000 cells/well, and then left to stand at room temperature for about 1 hour. Thereafter, an Eu-cAMP tracer solution and an ULight™-anti-cAMP solution were added thereto, and the resulting solution was left to stand at room temperature for about 1 hour. The amount of cAMP was calculated using EnVision (registered trademark) (PerkinElmer Inc).
For the agonistic activity, an efficacy (EC50 (μM)) was calculated by a non-linear regression method with a Sigmoid-Emax model, by defining the maximum reaction using α-MSH as 100% and the reaction using a vehicle alone as 0%, respectively.

human MC4 receptor = biological target: T4, human MC4 receptor (Homo sapiens, UniProt P32245); assay: Human MC4 receptor activation, cAMP production in cells transiently expressing the receptor; settings: FreeStyle 293-F cells expressing human MC4 receptor, α-MSH maximum = 100%
T4 construct: expressed in transfected cells; host or cells: FreeStyle 293-F cells (transient, electroporation)
Excerpt: as §1, §2, §3, §4, §5, §6, §7

T1 sequence (P41968 whole entry): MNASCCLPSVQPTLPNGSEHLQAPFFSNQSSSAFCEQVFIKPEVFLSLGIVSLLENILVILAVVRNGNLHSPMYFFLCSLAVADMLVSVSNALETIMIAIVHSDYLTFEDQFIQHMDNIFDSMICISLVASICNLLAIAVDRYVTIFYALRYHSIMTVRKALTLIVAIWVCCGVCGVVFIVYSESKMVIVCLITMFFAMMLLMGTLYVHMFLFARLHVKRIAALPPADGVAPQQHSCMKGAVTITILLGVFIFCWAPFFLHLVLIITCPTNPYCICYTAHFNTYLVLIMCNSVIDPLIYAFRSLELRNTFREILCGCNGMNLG
T3 sequence (P70596 whole entry): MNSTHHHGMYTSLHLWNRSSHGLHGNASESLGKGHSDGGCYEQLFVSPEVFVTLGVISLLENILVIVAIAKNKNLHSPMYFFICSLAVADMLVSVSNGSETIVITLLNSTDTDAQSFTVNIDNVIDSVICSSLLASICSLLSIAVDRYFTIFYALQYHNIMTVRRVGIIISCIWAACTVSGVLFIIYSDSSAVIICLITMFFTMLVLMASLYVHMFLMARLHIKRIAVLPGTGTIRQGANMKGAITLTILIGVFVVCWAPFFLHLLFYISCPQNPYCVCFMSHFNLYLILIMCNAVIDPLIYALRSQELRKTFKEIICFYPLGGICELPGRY
T2 sequence (Q01726 whole entry): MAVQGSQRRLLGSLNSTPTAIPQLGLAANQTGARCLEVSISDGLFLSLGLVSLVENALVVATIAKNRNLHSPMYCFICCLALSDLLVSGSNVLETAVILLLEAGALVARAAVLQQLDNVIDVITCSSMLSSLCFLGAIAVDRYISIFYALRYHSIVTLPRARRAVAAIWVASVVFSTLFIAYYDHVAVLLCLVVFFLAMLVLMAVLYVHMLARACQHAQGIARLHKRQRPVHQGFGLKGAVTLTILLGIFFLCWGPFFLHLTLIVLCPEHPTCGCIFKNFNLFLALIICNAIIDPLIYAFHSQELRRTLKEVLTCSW
T4 sequence (P32245 whole entry): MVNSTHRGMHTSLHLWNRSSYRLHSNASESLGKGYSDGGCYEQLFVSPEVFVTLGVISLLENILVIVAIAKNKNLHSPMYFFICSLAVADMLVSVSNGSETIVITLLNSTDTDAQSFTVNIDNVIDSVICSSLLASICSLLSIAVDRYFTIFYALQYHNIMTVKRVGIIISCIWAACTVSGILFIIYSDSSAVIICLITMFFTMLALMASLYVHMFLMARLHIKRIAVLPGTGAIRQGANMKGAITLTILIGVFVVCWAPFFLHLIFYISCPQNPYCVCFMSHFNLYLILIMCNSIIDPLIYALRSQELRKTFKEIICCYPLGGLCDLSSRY

Structure (SMILES) | EC50 (human MC3 receptor) [nM] | EC50 (human MC1 receptor) [nM] | EC50 (rat MC4 receptor) [nM] | EC50 (human MC4 receptor) [nM]
C[C@H]1CN(C(=O)[C@@H](N)C2CCCCC2)CCN1C(=O)[C@@H]1CN(C(C)(C)C)C[C@H]1c1ccc(F)cc1F [Example 30, (2S)-2-amino-1-[(3S)-4-{[(3S,4R)-1-tert-butyl-4-(2,4-difluorophenyl)pyrrolidin-3-yl]carbonyl}-3-methylpiperazin-1-yl]-2-cyclohexylethanone dihydrochloride] | – | – | – | 1800
CC(=O)N[C@H](C(=O)N1CCN(C(=O)[C@@H]2CN(C(C)(C)C)C[C@H]2c2ccc(F)cc2F)[C@@H](C)C1)C1CCCC1 [Example 15] | – | – | – | 220
C[C@H]1CN(C(=O)[C@@H](NC(=O)C2CC2)C2CCCCC2)CCN1C(=O)[C@@H]1CN(C(C)(C)C)C[C@H]1c1ccc(F)cc1F [Example 9] | – | – | – | 89
CC(=O)N[C@@H](CC1CCC(F)(F)CC1)C(=O)N1CCN(C(=O)[C@@H]2CN(C(C)(C)C)C[C@H]2c2ccc(F)cc2F)[C@@H](C)C1 [Example 19] | – | – | – | 380
CC(=O)N[C@@H](Cc1ccccc1Cl)C(=O)N1CCN(C(=O)C2CN(C(C)(C)C)CC2c2cc(F)c(Cl)c(F)c2)[C@@H](C)C1 (stereo partly shown) [Example 22] | – | – | – | 180
CC(=O)N[C@@H](CC(C)(C)C)C(=O)N1CCN(C(=O)[C@@H]2CN(CC3CC3)C[C@H]2c2ccc(F)cc2F)[C@@H](C)C1 [Example 27] | – | – | – | 1000
CC(=O)N[C@@H](CC(C)(C)C)C(=O)N1CCN(C(=O)[C@@H]2CN(C3CCCCC3)C[C@H]2c2ccc(F)cc2F)[C@@H](C)C1 [Example 25] | – | – | – | 120
CCC(=O)N[C@@H](CC(C)(C)C)C(=O)N1CCN(C(=O)[C@@H]2CN(C3CCOCC3)C[C@H]2c2ccc(Cl)cc2F)[C@@H](C)C1 [Example 21] | – | – | – | 130
CC(C)C[C@H](NS(C)(=O)=O)C(=O)N1CCN(C(=O)[C@@H]2CN(C3CCOCC3)C[C@H]2c2ccc(Cl)cc2F)[C@@H](C)C1 [Example 29, N-{(2S)-1-[(3S)-4-{[(3S,4R)-4-(4-chloro-2-fluorophenyl)-1-(tetrahydro-2H-pyran-4-yl)pyrrolidin-3-yl]carbonyl}-3-methylpiperazin-1-yl]-4-methyl-1-oxopentan-2-yl}methanesulfonamide monohydrochloride] | – | – | – | 280
CC(=O)N[C@@H](CC(C)(C)C)C(=O)N1CCN(C(=O)[C@@H]2CN(C)C[C@H]2c2ccc(F)cc2F)[C@@H](C)C1 [Example 26] | – | – | – | 5000

The next molecules have a lower EC50 (human MC4 receptor) than those just listed; values first:

EC50 (human MC3 receptor) [nM] | EC50 (human MC1 receptor) [nM] | EC50 (rat MC4 receptor) [nM] | EC50 (human MC4 receptor) [nM] | Structure (SMILES)
6400 | 1500 | 46 | 78 | CC(=O)N[C@@H](CC(C)(C)C)C(=O)N1CCN(C(=O)[C@@H]2CN(C(C)C)C[C@H]2c2ccc(F)cc2F)[C@@H](C)C1 [Example 24, N-{(2S)-1-[(3S)-4-{[(3S,4R)-4-(2,4-difluorophenyl)-1-isopropylpyrrolidin-3-yl]carbonyl}-3-methylpiperazin-1-yl]-4,4-dimethyl-1-oxopentan-2-yl}acetamide monohydrochloride]
– | – | – | 34 | CCC(=O)N[C@@H](CC(C)(C)C)C(=O)N1CCN(C(=O)[C@@H]2CN(C3CCOCC3)C[C@H]2c2ccc(Cl)cc2F)CC12CC2 [Example 13]
– | – | – | 5.5 | C[C@H]1CN(C(=O)[C@H](Cc2ccccc2Cl)N(C)C)CCN1C(=O)[C@@H]1CN(C(C)(C)C)C[C@H]1c1ccc(F)cc1F [Example 28, (2S)-1-[(3S)-4-{[(3 S,4R)-1-tert-butyl-4-(2,4-difluorophenyl)pyrrolidin-3-yl]carbonyl}-3-methylpiperazin-1-yl]-3-(2-chlorophenyl)-2-(dimethylamino)propan-1-one dihydrochloride]
– | – | – | 40 | CC(=O)N[C@@H](Cc1cccc(F)c1)C(=O)N1CCN(C(=O)[C@@H]2CN(C(C)(C)C)C[C@H]2c2ccc(F)cc2F)[C@@H](C)C1 [Example 17]
– | – | – | 14 | COC[C@H]1CN(C(=O)[C@H](CC(C)C)NC(C)=O)CCN1C(=O)C1CN(C(C)(C)C)CC1c1ccc(Br)cc1F (stereo partly shown) [Example 12]
4400 | 680 | 15 | 77 | CC(=O)N[C@@H](Cc1ccc(Cl)cc1)C(=O)N1CCN(C(=O)[C@@H]2CN(C(C)(C)C)C[C@H]2c2ccc(F)cc2F)[C@@H](C)C1 [Example 7]
– | – | – | 12 | CC(=O)N(C)[C@H](C(=O)N1CCN(C(=O)[C@@H]2CN(C(C)(C)C)C[C@H]2c2ccc(F)cc2F)[C@@H](C)C1)C1CCCCC1 [Example 10]
450 | 870 | 4.8 | 23 | CC(=O)N[C@@H](CC(C)(C)C)C(=O)N1CCN(C(=O)C2CN(C(C)(C)C)CC2c2ccc(Cl)cn2)[C@@H](C)C1 (stereo partly shown) [Example 23]
– | – | – | 62 | CC(=O)N[C@@H](CC1CCC(C)(C)CC1)C(=O)N1CCN(C(=O)[C@@H]2CN(C(C)(C)C)C[C@H]2c2ccc(F)cc2F)[C@@H](C)C1 [Example 18, N-[(2S)-1-[(3S)-4-{[(3 S,4R)-1-tert-butyl-4-(2,4-difluorophenyl)pyrrolidin-3-yl]carbonyl}-3-methylpiperazin-1-yl]-3-(4,4-dimethylcyclohexyl)-1-oxopropan-2-yl]acetamide monohydrochloride]
